Data published in patent publication US10316017B2, “COT modulators and methods of use thereof” (Gilead Sciences, Inc., priority 2015, dated 2019).

Biological target: T1, human Cot catalytic domain (30-397 amino acids) (Homo sapiens, UniProt P41279)
T1 construct: Purified recombinant human Cot catalytic domain (30-397 amino acids) was purchased from Cama Biosciences; purchased Cama Biosciences (so in the source)
Assay: High Throughput Cot Biochemical Assay (KinEASE TR-FRET)
Settings: Cot KinEASE TR-FRET, 400 μM ATP; read-out: IC50 HTRF
Method: Example 61: High Throughput Cot Biochemical Assay
In this assay, Cot-catalyzes the phosphorylation of a XL665-labeled peptide substrate. Europium conjugated phospho-tyrosine specific antibody binds the resulting phosphorylated peptide. […] Purified recombinant human Cot catalytic domain (30-397 amino acids) was purchased from Cama Biosciences. […] The standard 5 μL reaction mixture contained 400 μM ATP, 1 μM STK3 peptide, 5 nM of Cot in reaction buffer (10 mM MOPS, pH 7.0, 0.02% NaN3, 0.5 mg/mL BSA, 10 mM MgOAc, 1 mM DTT, 0.025% NP-40, 1.5% glycerol) and 0.1% DMSO.

T1 sequence (P41279 30-397): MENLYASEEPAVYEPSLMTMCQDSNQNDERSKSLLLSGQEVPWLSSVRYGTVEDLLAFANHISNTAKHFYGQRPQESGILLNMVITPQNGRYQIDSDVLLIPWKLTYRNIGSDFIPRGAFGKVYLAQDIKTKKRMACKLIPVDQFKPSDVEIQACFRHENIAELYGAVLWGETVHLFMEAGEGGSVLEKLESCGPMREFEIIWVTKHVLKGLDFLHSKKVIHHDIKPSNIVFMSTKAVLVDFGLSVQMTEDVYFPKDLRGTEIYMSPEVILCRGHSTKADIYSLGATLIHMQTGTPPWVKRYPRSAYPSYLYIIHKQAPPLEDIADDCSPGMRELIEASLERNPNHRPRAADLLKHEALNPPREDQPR

| SMILES | IC50 |
| --- | --- |
| Cc1cc2ncc(C#N)c(Nc3ccc(F)c(Cl)c3)c2cc1NC(c1ccc(F)cc1)c1cn(C)nn1 (stereo not shown) [Example 773, 4-((3-chloro-4-fluorophenyl)amino)-6-(((4-fluorophenyl)(1-methyl-1H-1,2,3-triazol-4-yl)methyl)amino)-7-methylquinoline-3-carbonitrile] | 1860 nM |
| N#Cc1cnc2c(Cl)cc(N[C@@H](c3ccccc3)c3cn(C4CC5(CNC5)C4)nn3)cc2c1Nc1ccc(F)c(Cl)c1 [Example 775, (S)-6-(((1-(2-azaspiro[3.3]heptan-6-yl)-1H-1,2,3-triazol-4-yl)(phenyl)methyl)amino)-8-chloro-4-((3-chloro-4-fluorophenyl)amino)quinoline-3-carbonitrile] | 5 nM |
| N#Cc1cnc2c(Cl)cc(NC(c3ccc(F)cc3)c3nccs3)cc2c1Nc1ccc(F)c(Cl)c1 (stereo not shown) [Example 782, 8-chloro-4-((3-chloro-4-fluorophenyl)amino)-6-(((4-fluorophenyl)(thiazol-2-yl)methyl)amino)quinoline-3-carbonitrile] | 444 nM |
| N#Cc1cnc2c(Cl)cc(NC(c3ccc(F)cc3)c3ncco3)cc2c1Nc1ccc(F)c(Cl)c1 (stereo not shown) [Example 783, 8-chloro-4-((3-chloro-4-fluorophenyl)amino)-6-(((4-fluorophenyl)(oxazol-2-yl)methyl)amino)quinoline-3-carbonitrile] | 291 nM |
| CC(C)(C)N1CCC(n2cc([C@@H](Nc3cc(Cl)c4ncc(C#N)c(Nc5cccc(-n6nccn6)c5)c4c3)c3ccccc3)nn2)CC1 [Example 785, (S)-4-((3-(2H-1,2,3-triazol-2-yl)phenyl)amino)-6-(((1-(1-(tert-butyl)piperidin-4-yl)-1H-1,2,3-triazol-4-yl)(phenyl)methyl)amino)-8-chloroquinoline-3-carbonitrile] | 782 nM |
| CC1(C)C[C@H](n2cc([C@H](Nc3cc(Cl)c4ncc(C#N)c(Nc5ccc(F)c(Cl)c5)c4c3)c3ccccc3)nn2)CCN1 [Example 788, 8-chloro-4-((3-chloro-4-fluorophenyl)amino)-6-(((R)-(1-((R)-2,2-dimethylpiperidin-4-yl)-1H-1,2,3-triazol-4-yl)(phenyl)methyl)amino) quinoline-3-carbonitrile] | 1010 nM |
| CC1(C)C[C@H](n2cc([C@H](Nc3cc(Cl)c4ncc(C#N)c(Nc5ccc(F)c(Cl)c5)c4c3)c3ccccc3)nn2)CCN1 [Example 789, 8-chloro-4-((3-chloro-4-fluorophenyl)amino)-6-(((R)-(1-((R)-2,2-dimethylpiperidin-4-yl)-1H-1,2,3-triazol-4-yl)(phenyl)methyl)amino) quinoline-3-carbonitrile] | 657 nM |
| COc1cc2ncc(C#N)c(Nc3ccc(F)c(Cl)c3)c2cc1NC(c1ccc(F)cc1)c1cn(C)nn1 (stereo not shown) [Example 798, 4-((3-chloro-4-fluorophenyl)amino)-6-(((4-fluorophenyl)(1-methyl-1H-1,2,3-triazol-4-yl)methyl)amino)-7-methoxyquinoline-3-carbonitrile] | 7920 nM |
| N#Cc1cnc2ccc(NC(c3ccc(F)cc3)c3ccncn3)cc2c1Nc1ccc(F)c(Cl)c1 (stereo not shown) [Example 799, 4-((3-chloro-4-fluorophenyl)amino)-6-(((4-fluorophenyl)(pyrimidin-4-yl)methyl)amino)quinoline-3-carbonitrile] | 1480 nM |
| N#Cc1cnc2c(Cl)cc(NC(c3ccc(F)cc3)c3ncccn3)cc2c1Nc1ccc(F)c(Cl)c1 (stereo not shown) [Example 800, 8-chloro-4-((3-chloro-4-fluorophenyl)amino)-6-(((4-fluorophenyl)(pyrimidin-2-yl)methyl)amino)quinoline-3-carbonitrile] | > 10000 nM |
| N#Cc1cnc2c(Cl)cc(NC(c3ccc(F)cc3)c3cnccn3)cc2c1Nc1ccc(F)c(Cl)c1 (stereo not shown) [Example 801, 8-chloro-4-((3-chloro-4-fluorophenyl)amino)-6-(((4-fluorophenyl)(pyrazin-2-yl)methyl)amino)quinoline-3-carbonitrile] | 1070 nM |
| N#Cc1cnc2c(Cl)cc(NC(c3ccc(F)cc3)c3cocn3)cc2c1Nc1ccc(F)c(Cl)c1 (stereo not shown) [Example 807, 8-chloro-4-((3-chloro-4-fluorophenyl)amino)-6-(((4-fluorophenyl)(oxazol-4-yl)methyl)amino)quinoline-3-carbonitrile] | 437 nM |
| N#Cc1cnc2c(Cl)cc(N[C@@H](c3ccc(F)cc3)c3cn(C4COC4)nn3)cc2c1Nc1ccc(F)c(Cl)c1 [Example 810, (S)-8-chloro-4-((3-chloro-4-fluorophenyl)amino)-6-(((4-fluorophenyl)(1-(oxetan-3-yl)-1H-1,2,3-triazol-4-yl)methyl)amino)quinoline-3-carbonitrile] | 12 nM |
| CC(C)(C)n1cc([C@@H](Nc2cc(Cl)c3ncc(C#N)c(Nc4ccc(F)c(Cl)c4)c3c2)c2ccc(F)cc2)nn1 [Example 811, (S)-6-(((1-(tert-butyl)-1H-1,2,3-triazol-4-yl)(4-fluorophenyl)methyl)amino)-8-chloro-4-((3-chloro-4-fluorophenyl)amino)quinoline-3-carbonitrile] | 34 nM |
| CC(C)(CC(=O)O)n1cc([C@@H](Nc2cc(Cl)c3ncc(C#N)c(Nc4ccc(F)c(Cl)c4)c3c2)c2ccc(F)cc2)nn1 [Example 812, (S)-3-(4-(((8-chloro-4-((3-chloro-4-fluorophenyl)amino)-3-cyanoquinolin-6-yl)amino)(4-fluorophenyl)methyl)-1H-1,2,3-triazol-1-yl)-3-methylbutanoic acid] | 794 nM |
| N#Cc1cnc2c(Cl)cc(NC(c3ccc(F)cc3)c3cn(C[C@H]4CCCN4)nn3)cc2c1Nc1ccc(F)c(Cl)c1 (stereo partly drawn) [Example 817, 8-chloro-4-((3-chloro-4-fluorophenyl)amino)-6-(((4-fluorophenyl)(1-(((R)-pyrrolidin-2-yl)methyl)-1H-1,2,3-triazol-4-yl)methyl)amino)quinoline-3-carbonitrile] | 7 nM |
| CN(C)C(=O)N1CCC[C@@H]1Cn1cc(C(Nc2cc(Cl)c3ncc(C#N)c(Nc4ccc(F)c(Cl)c4)c3c2)c2ccc(F)cc2)nn1 (stereo partly drawn) [Example 818, (2R)-2-((4-(((8-chloro-4-((3-chloro-4-fluorophenyl)amino)-3-cyanoquinolin-6-yl)amino)(4-fluorophenyl)methyl)-1H-1,2,3-triazol-1-yl)methyl)-N,N-dimethylpyrrolidine-1-carboxamide] | 447 nM |
| CCN1CCC(n2cc([C@@H](Nc3cc(Cl)c4ncc(C#N)c(Nc5ccc(F)c(Cl)c5)c4c3)c3ccc4ccccc4c3)nn2)CC1 [Example 820, (S)-8-chloro-4-((3-chloro-4-fluorophenyl)amino)-6-(((1-(1-ethylpiperidin-4-yl)-1H-1,2,3-triazol-4-yl)(naphthalen-2-yl)methyl)amino)quinoline-3-carbonitrile] | 23 nM |
| N#Cc1cnc2c(Cl)cc(N[C@@H](c3ccc(F)cc3)c3cn(C4CCN(C5CC5)CC4)nn3)cc2c1Nc1ccc(F)c(Cl)c1 [Example 821, (S)-8-chloro-4-((3-chloro-4-fluorophenyl)amino)-6-(((1-(1-cyclopropylpiperidin-4-yl)-1H-1,2,3-triazol-4-yl)(4-fluorophenyl)methyl)amino) quinoline-3-carbonitrile] | 21 nM |
| N#Cc1cnc2c(Cl)cc(N[C@@H](c3ccc(F)cc3)c3cn(C4CCN(C5CC(F)(F)C5)CC4)nn3)cc2c1Nc1ccc(F)c(Cl)c1 [Example 822, (S)-8-chloro-4-((3-chloro-4-fluorophenyl)amino)-6-(((1-(1-(3,3-difluorocyclobutyl)piperidin-4-yl)-1H-1,2,3-triazol-4-yl)(4-fluorophenyl)methyl)amino) quinoline-3-carbonitrile] | 90 nM |
| N#Cc1cnc2c(Cl)cc(N[C@@H](c3ccc(F)cc3)c3cn(C4CCN(CC(F)F)CC4)nn3)cc2c1Nc1ccc(F)c(Cl)c1 [Example 823, (S)-8-chloro-4-((3-chloro-4-fluorophenyl)amino)-6-(((1-(1-(2,2-difluoroethyl)piperidin-4-yl)-1H-1,2,3-triazol-4-yl)(4-fluorophenyl)methyl)amino) quinoline-3-carbonitrile] | 97 nM |
| CN1CCC(n2cc([C@@H](Nc3cc(Cl)c4ncc(C#N)c(Nc5ccc(F)c(Cl)c5)c4c3)c3ccc(F)cc3)nn2)CC1 [Example 826, (S)-8-chloro-4-((3-chloro-4-fluorophenyl)amino)-6-(((4-fluorophenyl)(1-(1-methylpiperidin-4-yl)-1H-1,2,3-triazol-4-yl)methyl)amino)quinoline-3-carbonitrile] | 6 nM |
| CCN1CCC(n2cc(C(Nc3ccc4ncc(C#N)c(Nc5ccc(F)c(Cl)c5)c4c3)c3ccc(F)cc3)nn2)CC1 (stereo not shown) [Example 827, 4-((3-chloro-4-fluorophenyl)amino)-6-(((1-(1-ethylpiperidin-4-yl)-1H-1,2,3-triazol-4-yl)(4-fluorophenyl)methyl)amino) quinoline-3-carbonitrile] | 34 nM |
| N#Cc1cnc2c(Cl)cc(N[C@@H](c3ccc(F)cc3)c3cn(C4CN5CCC4CC5)nn3)cc2c1Nc1ccc(F)c(Cl)c1 (stereo partly drawn) [Example 829, 8-chloro-4-((3-chloro-4-fluorophenyl)amino)-6-(((1S)-(4-fluorophenyl)(1-(quinuclidin-3-yl)-1H-1,2,3-triazol-4-yl)methyl)amino)quinoline-3-carbonitrile] | 6 nM |
| CC(C)(C)OC(=O)N1CCC(n2cc([C@@H](Nc3cc(Cl)c4ncc(C#N)c(Nc5ccc(F)c(Cl)c5)c4c3)c3ccc(F)cc3)nn2)CC1 [Example 830, tert-butyl (S)-4-(4-(((8-chloro-4-((3-chloro-4-fluorophenyl)amino)-3-cyanoquinolin-6-yl)amino)(4-fluorophenyl)methyl)-1H-1,2,3-triazol-1-yl)piperidine-1-carboxylate] | 363 nM |
